The text below walks through data of patent US20080299109A1, “MECHANISM OF ASTRICYTE-NEURON SIGNALING” (Korea Institute of Science and Technology, priority 2007, published 2008).

In assay [1] the test system is NMDA receptor-mediated component of the EPSP. The assay can be described thus: Current clamp EPSP recording in CA1 pyramidal cells. It is filed as cell-based, rat. The following applies: 50 μM APV. On the procedure: (§1) Young rats (Sprague-Dawley, age P15-P20) or mice (C57/B16, age P14-19) were deeply anesthetized with isoflurane and decapitated. The brain was rapidly removed and submerged in an ice-cold oxygenated artificial cerebrospinal fluid (ACSF) comprised of 130 mM NaCl, 24 mM NaHCO3, 3.5 mM KCl, 1.25 mM NaH2PO4, 1 mM CaCl2,3 mM MgCl2, and 10 mM glucose saturated with 95% O2/5% CO2, at pH 7.4.
The hemisected brain was glued onto the stage of a vibrating microtome (Leica VT1000 S) and sections of 300 μm thickness were cut and stored in an incubation chamber at room temperature for about 1 h before use. […]
(§2) Synaptic responses were evoked by applying 0.1 ms current injection (1-100 μA) to a bipolar stimulating electrode placed in the stratum radiatum. Thrombin (Calbiochem) concentration was determined as described by Gingrich et al. (2000) using conversion of 1 U/ml=10 nM. […]
A series of current clamp experiments were carried out to directly measure the effects of PAR1 activation on the NMDA receptor-mediated component of the EPSP recorded in the presence of 1.5 mM Mg^2+. […]

Assay [2] deals with synaptic NMDA receptors. In words: Miniature EPSC analysis in CA1 pyramidal cells. The following applies: APV 50 μM. The assay is classed as cell-based, rat. The text has this:
Miniature EPSCs (mEPSCs) were digitized at 10 KHz and the records were filtered with a digital Gaussian filter (−3 dB) with a cutoff frequency of 1 kHz. The mEPSCs were automatically detected and grouped based on an amplitude threshold of 10 pA and a rise time between 0 to 5 (fast rise time) and 5 to 10 ms (slow rise time); a small number of apparent mEPSCs with rise times slower than 10 ms were not studied further. Selected mEPSCs were scaled, averaged, and fitted with a sum of two exponential functions,
Response Amplitude(t)=Amplitude1exp(−time/τ1)+Amplitude2exp(−time/τ2).
If the first decay constant (τ1) and the second decay constant (τ2) were within 10%, the curve was subsequently refitted with a single exponential function. Both the frequency and the peak amplitude of detected events were analyzed. […] All data were acquired, stored, and analyzed using pClamp 8 (Axon Instruments, Foster City, Calif.) and Mini Analysis Program (Synaptosoft). […]
To investigate the effects of PAR1 activation on synaptic NMDA receptors in normal concentrations of Mg^2+ (1.5 mM), the inventors recorded spontaneous miniature excitatory postsynaptic currents (mEPSCs) at −60 mV in the presence of 0.5 μM TTX to look for changes in the amplitude and decay kinetics of individual synaptic currents.

Assay [3] has as its system PAR1−/− cortical neurons on wild-type astrocyte monolayer. In words: PAR1−/− cortical neurons co-cultured on wild-type astrocytes: dendritic Ca2+ and voltage clamp. The assay is classed as cell-based, mouse. On the procedure:
For an astrocyte-neuron co-culture, a monolayer of wild-type astrocytes was grown to 70-100% confluency (7-14 days in culture). Subsequently, the cortex from a P0 to P5 PAR1−/− mouse (Connolly et al., 1996) was dissected free of meninges and digested for 30 min in 1 mg/ml trypsin at 37° C. PAR1−/− mice were >99% C57B1/6 (>7 backcrossings), and wild-type mice were from a colony derived from PAR1−/− littermates.
All experiments were done within 3 generations of establishing the homozygous colony. The cortical cells were plated at low density on top of the monolayer of wild-type astrocytes obtained in above Example 1.1. Neurons were used for Ca^2+ imaging after 1-5 days in culture.
Whole-cell perforated-patch recording from cultured cortical neurons or HEK cells under voltage clamp (holding potential −60 mV) was made with an Axopatch 200B amplifier (Axon Instruments, Union City, Calif.). The recording chamber was continually perfused with a recording solution comprised of 150 mM NaCl, 3 mM KCl, 2 mM CaCl2, 5.5 mM glucose, and 10 mM HEPES (pH 7.4 by NaOH; osmolality adjusted to 315-320 mOsm with sucrose). Recording electrodes (4-7 MΩ) were filled with (in mM) 150 mM CsMeSO4, 10 mM NaCl, 0.5 CaCl2, 10 mM HEPES, and 25-50 μg/ml gramicidin D (pH adjusted to 7.3 with CsOH and osmolality adjusted to 310 mOsm with sucrose). It took 20-30 min to achieve acceptable perforation with series resistance ranging from 30-60 MΩ. All electrophysiological data from cultured neurons cells in this study were collected at room temperature (23-26° C.).
After a 20 min recovery, the bath perfusion was stopped and TFLLR was applied by brief (<1 sec) pressure ejection onto the astrocyte hosting the dye-loaded neuron in a static bath condition. Changes in fluorescence were monitored in a number of dendritic processes (schematized in FIGS. 8a and 8b).

Another assay concerns CA1 pyramidal cells. The assay can be described thus: Current clamp membrane potential of CA1 pyramidal cells in hippocampal slices. It is filed as cell-based, rat. The following applies: APV itself. The method, then:
as §1
The hemisected brain was glued onto the stage of a vibrating microtome (Leica VT1000 S) and sections of 300 μm thickness were cut and stored in an incubation chamber at room temperature for about 1 h before use. For voltage clamp experiments, the solution used to fill the electrodes was comprised of 140 mM Cs-MeSO4, 10 mM HEPES, 7 mM NaCl, 4 mM Mg-ATP, and 0.3 mM Na3-GTP; the solution for current clamp recordings was comprised of 140 mM K-MeSO4, 10 mM HEPES, 7 mM NaCl, 4 mM Mg-ATP, and 0.3 mM Na3-GTP, and supplemented with 1 mM QX314; and 1 mM QX314 was omitted from some current clamp recordings (e.g., FIG. 9e).
Slices were placed on the stage of an upright microscope underneath a platinum and nylon restraining grid, and superfused with oxygenated ACSF at room temperature (23° C.), some experiments are performed at 34° C. by a temperature controller (TC-344B, Warner, Hamden). The standard ACSF recording solution was comprised of 130 mM NaCl, 24 mM NaHCO3, 3.5 mM KCl, 1.25 mM NaH2PO4, 1.5 mM CaCl2, 1.5 mM MgCl2, and 10 mM glucose saturated with 95% O2/5% CO2, at pH 7.4. For some experiments 0.5-1 μM TTX, 10 μM NBQX, or 10-20 μM bicuculline were added to the extracellular solution, extracellular Mg^2+ was reduced to 5 μM, and/or extracellular Ca^2+ raised to 2 mM.
Visually guided whole-cell patch recordings were obtained from CA1 pyramidal neurons in a voltage clamp or current clamp configuration using an Axopatch 200A (Axon Instruments) and a borosilicate patch pipette of 5-7 MΩ resistance. […] Records were filtered at 5 kHz and digitized at 20 kHz using a Digidata 1200 A/D board.
Synaptic responses were evoked by applying 0.1 ms current injection (1-100 μA) to a bipolar stimulating electrode placed in the stratum radiatum. Thrombin (Calbiochem) concentration was determined as described by Gingrich et al. (2000) using conversion of 1 U/ml=10 nM. TFLLR and thrombin were applied by gravity perfusion at 1.0 ml/min, with extensive washing of perfusion lines, chamber, and objective between experiments to remove all residual thrombin, which has been reported to irreversibly cleave and PAR1 at a pM concentration. Removal of all thrombin ensured that PAR1 receptors were not pre-cleaved by residual thrombin prior to experimentation.

Assay [4] has as its system synaptic NMDA receptors. The assay can be described thus: Evoked NMDA EPSC current-voltage relationship in CA1 pyramidal cells. The assay is classed as cell-based, rat. The following applies: 100 μM APV. On the procedure:
as §1
Slices were placed on the stage of an upright microscope underneath a platinum and nylon restraining grid, and superfused with oxygenated ACSF at room temperature (23° C.), some experiments are performed at 34° C. by a temperature controller (TC-344B, Warner, Hamden). The standard ACSF recording solution was comprised of 130 mM NaCl, 24 mM NaHCO3, 3.5 mM KCl, 1.25 mM NaH2PO4, 1.5 mM CaCl2, 1.5 mM MgCl2, and 10 mM glucose saturated with 95% O2/5% CO2, at pH 7.4. […]
as §2
EPSCs were evoked by electrical stimulation of Schaffer collateral axons in the CA1 stratum radiatum, and recorded from CA1 pyramidal neurons under voltage clamp. […]

Take `N[C@H](CCCP(=O)(O)O)C(=O)O` [APV, D-2-amino-5-phosphono-valeric acid]: the “effect on TFLLR potentiation of EPSP area” value in assay [1] is given as “reversed”. In the assay with synaptic NMDA receptors [2], the “effect on TFLLR-induced τ2” value is given as “eliminated”. The “peak amplitude of TFLLR-evoked current in presence of APV” value in assay [3] (30 μM TFLLR, 50 μM APV) was 2.5±0.3 pA. Further, the “effect on TFLLR-induced dendritic fluorescence increase” value in assay [3] (APV 50 μM) was “blocked”. For the same molecule, the “effect on resting membrane potential of CA1 neurons” value with CA1 pyramidal cells is recorded as 0.4±0.7 mV. For the same molecule, in the assay with synaptic NMDA receptors [4], the “effect on NMDA component of evoked EPSCs” value is “blocked”.
